Data set [1] concerns the target T1, recombinant guanylate cyclase reporter cell line (Rattus norvegicus, UniProt P20595).
T1 construct: expressed in transfected cells
T1 sequence (P20595 1-619): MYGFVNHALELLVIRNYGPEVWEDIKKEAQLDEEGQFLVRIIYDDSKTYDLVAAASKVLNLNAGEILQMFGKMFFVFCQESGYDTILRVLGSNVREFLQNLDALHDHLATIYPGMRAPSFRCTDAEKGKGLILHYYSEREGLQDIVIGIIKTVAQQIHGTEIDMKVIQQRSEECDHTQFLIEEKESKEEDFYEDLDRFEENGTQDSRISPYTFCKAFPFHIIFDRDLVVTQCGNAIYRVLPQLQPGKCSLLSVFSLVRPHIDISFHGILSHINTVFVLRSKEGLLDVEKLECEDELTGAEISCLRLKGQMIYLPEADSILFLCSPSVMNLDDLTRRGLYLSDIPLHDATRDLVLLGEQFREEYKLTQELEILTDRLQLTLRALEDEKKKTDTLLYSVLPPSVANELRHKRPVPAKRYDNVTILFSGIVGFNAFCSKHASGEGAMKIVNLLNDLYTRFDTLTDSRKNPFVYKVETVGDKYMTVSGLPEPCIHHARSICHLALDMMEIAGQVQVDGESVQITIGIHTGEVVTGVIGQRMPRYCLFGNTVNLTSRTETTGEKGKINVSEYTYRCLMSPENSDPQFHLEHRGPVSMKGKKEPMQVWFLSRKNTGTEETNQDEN
T1 sequence (P19686 1-690 partner): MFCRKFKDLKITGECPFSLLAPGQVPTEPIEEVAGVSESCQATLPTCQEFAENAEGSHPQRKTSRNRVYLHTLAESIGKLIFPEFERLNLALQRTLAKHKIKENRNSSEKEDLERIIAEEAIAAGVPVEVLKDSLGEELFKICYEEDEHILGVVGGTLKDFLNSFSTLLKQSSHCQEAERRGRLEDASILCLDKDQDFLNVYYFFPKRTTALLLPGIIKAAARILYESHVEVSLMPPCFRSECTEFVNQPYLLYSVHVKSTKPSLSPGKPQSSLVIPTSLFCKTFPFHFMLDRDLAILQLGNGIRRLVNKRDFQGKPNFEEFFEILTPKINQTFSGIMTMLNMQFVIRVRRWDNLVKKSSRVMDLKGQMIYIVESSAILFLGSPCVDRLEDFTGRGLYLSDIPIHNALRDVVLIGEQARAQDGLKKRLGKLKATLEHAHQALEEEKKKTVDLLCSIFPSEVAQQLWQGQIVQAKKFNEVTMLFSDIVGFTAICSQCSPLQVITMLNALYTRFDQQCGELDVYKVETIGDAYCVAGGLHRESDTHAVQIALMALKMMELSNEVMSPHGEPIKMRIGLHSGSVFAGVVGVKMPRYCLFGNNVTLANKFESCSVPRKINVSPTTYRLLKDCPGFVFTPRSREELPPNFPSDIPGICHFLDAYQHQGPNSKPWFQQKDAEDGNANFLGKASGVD
As to the kind of experiment: Effect on a recombinant guanylate cyclase reporter cell line. The format is cell-based. To be noted: for MEC: minimum effective concentration; for EC50: half maximal effective concentration. The protocol: B-1. Effect on a Recombinant Guanylate Cyclase Reporter Cell Line
The cellular activity of the compounds according to the invention was determined using a recombinant guanylate cyclase reporter cell line, as described in F. Wunder et al., Anal. Biochem. 339, 104-112 (2005).

Data set [2] is described as follows: Pharmacokinetic parameters following intravenous administration in rats. Type of data set: in vivo, male Wistar rats. The protocol:
(§1) B-5. Determination of Pharmacokinetic Parameters Following Intravenous and Oral Administration
(§2) The pharmacokinetic parameters of the compounds according to the invention were determined in male Wistar rats and/or in female beagles and/or in cynomolgus monkeys and/or in male CD-1 mice. Intravenous administration in the case of mice and rats was carried out by means of a species-specific plasma/DMSO formulation, and in the case of dogs and monkeys by means of a water/PEG400/ethanol formulation. In all species, oral administration of the dissolved substance was performed via gavage, based on a water/PEG400/ethanol formulation.
(§3) An internal standard (which may also be a chemically unrelated substance) was added to the samples of the compounds of the invention, calibration samples and qualifiers, and there followed protein precipitation by means of acetonitrile in excess. Addition of a buffer solution matched to the LC conditions, and subsequent vortexing, was followed by centrifugation at 1000 g. The supernatant was analysed by LC-MS/MS using C18 reversed-phase columns and variable mobile phase mixtures. The substances were quantified via the peak heights or areas from extracted ion chromatograms of specific selected ion monitoring experiments.
(§4) The plasma concentration/time plots determined were used to calculate the pharmacokinetic parameters such as AUC, Cmax, t1/2 (terminal half-life), F (bioavailability), MRT (mean residence time) and CL (clearance), by means of a validated pharmacokinetic calculation program.
(§5) Since the substance quantification was performed in plasma, it was necessary to determine the blood/plasma distribution of the substance in order to be able to adjust the pharmacokinetic parameters correspondingly. For this purpose, a defined amount of substance was incubated in K3 EDTA whole blood of the species in question in a rocking roller mixer for 20 min. After centrifugation at 1000 g, the plasma concentration was measured (by means of LC-MS/MS; see above) and determined by calculating the ratio of the Cblood/Cplasma value.

Data set [3] in a line: Pharmacokinetic parameters following oral administration in rats. The format is in vivo, male Wistar rats. To be noted: for F: bioavailability. As for the experimental part:
as §1, §2, §3, §4, §5

Counter-ions that a name gives are not always drawn. Some results are limits rather than exact numbers.

On to `O=C(O)c1cnn(C2CCCN(c3cc(Cl)ccc3-c3ccc(N4CCN(CC5CC5)CC4)cc3)C2)c1C(F)F` (single isomer, unassigned; enantiomer 2) [Example 11, 1-(1-{4-Chloro-4′-[4-(cyclopropylmethyl)piperazin-1-yl] [biphenyl]-2-yl}piperidin-3-yl)-5-(difluoromethyl)-1H-pyrazole-4-carboxylic acid hydrochloride (Enantiomer 2)], for which the MEC in data set [1] is reported as <0.3 nM. The molecule further returned an AUCnorm in data set [2] (intravenous administration) of 1.23 kg·h/L. Also, in data set [3], the AUCnorm amounted to 0.70 kg·h/L and the F is reported as 58.2%.

`O=C(O)c1cnn(C2CCCN(c3cc(Cl)ccc3-c3ccc(N4CCN(CC(F)F)CC4)cc3)C2)c1C(F)F` (single isomer, unassigned; enantiomer 2) [Example 19, 1-[1-{4-Chloro-4′-[4-(2,2-difluoroethyl)piperazin-1-yl][biphenyl]-2-yl}piperidin-3-yl]-5-(difluoromethyl)-1H-pyrazole-4-carboxylic acid hydrochloride (Enantiomer 2)]: in data set [1], the EC50 (usually the concentration at which the effect is half-maximal) was determined as 0.0019 µM. For the same molecule, the MEC in data set [1] was determined as 0.3 nM. In addition, the AUCnorm in data set [2] (intravenous administration) came to 3.09 kg·h/L; in data set [3], 0.25 kg·h/L. Also, the MRT (usually the average time that molecules of a dose stay in the body) in data set [2] (male, Wistar, rat, plasma, intravenous administration) is 5.66 h; in data set [3] (male, Wistar, rat, plasma, read-out: MRT) it was 7.46 h. The clearance in data set [2] (male, Wistar, rat, plasma, intravenous administration, read-out: CLplasma (converted)) was 0.32 L/h/kg. In addition, the half-life in data set [2] (male, Wistar, rat, plasma, intravenous administration, read-out: t½ (converted)) is 4.24 h; in data set [3] (male, Wistar, rat, plasma, read-out: t½ (converted)) it was 4.65 h. For the same molecule, the F in data set [3] stood at 8.01%.

With `CCCN1CCN(c2ccc(-c3ccc(Cl)cc3N3CCCC(n4ncc(C(=O)O)c4C(F)F)C3)cc2)CC1` (single isomer, unassigned; enantiomer 2) [Example 5, 1-{1-[4-Chloro-4′-(4-propylpiperazin-1-yl)[biphenyl]-2-yl]piperidin-3-yl}-5-(difluoromethyl)-1H-pyrazole-4-carboxylic acid hydrochloride (Enantiomer 2)], the MEC in data set [1] came out at 0.3 nM. Further, the AUCnorm in data set [2] (intravenous administration) amounted to 1.40 kg·h/L; in data set [3] it was 0.84 kg·h/L. In data set [3], the F was determined as 59.9%.

With `O=C(O)c1cnn(C2CCCN(c3cc(Cl)ccc3-c3ccc(N4CCN(CC(F)(F)F)CC4)cc3)C2)c1C(F)F` (single isomer, unassigned; enantiomer 1) [Example 20, 1-[1-[5-Chloro-2-[4-[4-(2,2,2-trifluoroethyl)piperazin-1-yl]phenyl]phenyl]-3-piperidyl]-5-(difluoromethyl)pyrazole-4-carboxylic acid (Enantiomer 1)], the MEC in data set [1] came to 1.6 nM. For the same molecule, in data set [2] (after i.v. application), the “Half live in comparison to example 174 in WO 2012/058132” value is “longer” and the “mean residence time (MRT) in comparison to example 174 in WO 2012/058132” value is “longer”. The same molecule had an AUCnorm in data set [2] (intravenous administration) of 2.29 kg·h/L. In data set [3], this molecule registered an AUCnorm of 2.11 kg·h/L and an F of 91.7%.

As for `O=C(O)c1cnn(-c2cccc(-c3cc(Cl)ccc3-c3ccc(N4CCN(CC5CC5)CC4)cc3)n2)c1C(F)(F)F` [174 (WO2012/058132), reference compound], the AUCnorm in data set [2] (intravenous administration) was determined as 0.77 kg·h/L. In data set [3], this molecule came in with an AUCnorm of 0.63 kg·h/L, an MRT of 8.41 h and an F of 81.8%.

On to `O=C(O)c1cnn(C2CCCN(c3cc(Cl)ccc3-c3ccc(N4CCN(CC5CC5C(F)(F)F)CC4)cc3)C2)c1C(F)F` (mixture of isomers) [Example 39, 1-{1-[4-Chloro-4′-(4-{[cis-2-(trifluoromethyl)cyclopropyl]methyl}piperazin-1-yl) [biphenyl]-2-yl]piperidin-3-yl}-5-(difluoromethyl)-1H-pyrazole-4-carboxylic acid hydrochloride (Diastereomeric Mixture 2)], for which, in data set [1], the EC50 turned out to be 0.0145 µM and the MEC is reported as 1.0 nM.

Consider `O=C(O)c1cnn(C2CCCN(c3cc(Cl)ccc3-c3ccc(N4CCN(CCC(F)(F)F)CC4)nc3)C2)c1C(F)F` (single isomer, unassigned; enantiomer 2) [Example 67, 1-[1-(5-Chloro-2-{6-[4-(3,3,3-trifluoropropyl)piperazin-1-yl]pyridin-3-yl}phenyl)piperidin-3-yl]-5-(difluoromethyl)-1H-pyrazole-4-carboxylic acid hydrochloride (Enantiomer 2)], for which, in data set [1], the EC50 is < 0.001 µM and the MEC is <0.3 nM.

As for `O=C(O)c1cnn(C2CCCN(c3cc(Cl)ccc3-c3ccc(N4CCN(CC56CC(F)(C5)C6)CC4)cc3)C2)c1C(F)F` (single isomer, unassigned; enantiomer 2) [Example 17, 1-[1-(4-Chloro-4′-{4-[(3-fluorobicyclo[1.1.1]pentan-1-yl)methyl]piperazin-1-yl}[biphenyl]-2-yl)piperidin-3-yl]-5-(difluoromethyl)-1H-pyrazole-4-carboxylic acid hydrochloride (Enantiomer 2)], in data set [1], the EC50 is 0.0102 µM and the MEC amounted to 1.0 nM.

Take `O=C(O)c1cnn(C2CCCN(c3cc(Cl)ccc3-c3ccc(C4CN(CC(F)(F)F)C4)cc3)C2)c1C(F)F` (single isomer, unassigned; enantiomer 2) [Example 58, 1-(1-{4-Chloro-4′-[1-(2,2,2-trifluoroethyl)azetidin-3-yl][biphenyl]-2-yl}piperidin-3-yl)-5-(difluoromethyl)-1H-pyrazole-4-carboxylic acid hydrochloride (Enantiomer 2)]: in data set [1], the EC50 is 0.0315 µM and the MEC was 3.0 nM.

As for `CN1CCN(c2ccc(-c3ccc(Cl)cc3N3CCCC(n4ncc(C(=O)O)c4C(F)F)C3)cc2)CC1` (single isomer, unassigned; enantiomer 2) [Example 2, 1-{1-[4-Chloro-4′-(4-methylpiperazin-1-yl)[biphenyl]-2-yl]piperidin-3-yl}-5-(difluoromethyl)-1H-pyrazole-4-carboxylic acid hydrochloride (Enantiomer 2)], in data set [1], the EC50 was determined as 0.0252 µM and the MEC is reported as 7.0 nM.

On to `CCN1CCN(c2ccc(-c3ccc(Cl)cc3N3CCCC(n4ncc(C(=O)O)c4C(F)F)C3)cc2)CC1` (single isomer, unassigned; enantiomer 1) [Example 3, 1-{1-[4-Chloro-4′-(4-ethylpiperazin-1-yl)[biphenyl]-2-yl]piperidin-3-yl}-5-(difluoromethyl)-1H-pyrazole-4-carboxylic acid hydrochloride (Enantiomer 1)], for which, in data set [1], the EC50 stood at 0.0246 µM and the MEC was 3.0 nM.

The values above are taken from patent publication US20240101528A1, “SUBSTITUTED PYRAZOLO PIPERIDINE CARBOXYLIC ACIDS” (BAYER AKTIENGESELLSCHAFT, priority 2020, published 2024).
